Data as given in US20030022820A1, “IN VIVO ACTIVATION OF TUMOR-SPECIFIC CYTOTOXIC T CELLS” (priority 1995, published 2003).

Key:
[1] = system: A2.1/K^b×CD8 or A2.1 transgenic (Tg) mice; assay: Immunization of transgenic mice with Her-2/neu peptides, cytotoxicity against peptide-pulsed T2-A2.1/K^b; assay type: in vivo; settings: A2.1/K^b×CD8 or A2.1 Tg mice
Procedure: A2.1/K^b×CD8 and/or A2.1 transgenic mice were immunized with each of the peptides listed in Table 6 to determine if they could stimulate A2.1-restricted CTL. Mice were immunized with a mixture of 100 mg of the Her-2/neu peptide with 120 mg “helper” peptide in 100 ml Incomplete Freund's Adjuvant (IFA).
A2.1/K^b×CD8 or A2.1 lipopolysaccharide (LPS) -blasts were prepared as stimulators for in vitro restimulation of spleen cells from immunized mice. These were prepared by incubating splenocytes from A2/K^b or A2.1 mice in complete RPMI containing 25 mg/ml LPS and 7 mg/ml dextran sulfate at 1.5×10^6 cells/ml in a total volume of 30 ml for 3 days. […] Six days following in vitro restimulation, the CTL populations were assayed for lytic activity against T2-A2/K^b target cells preincubated with the peptide used for stimulation (15 mM). The resultant Her-2/neu peptide-specific CTL populations were maintained in vitro by weekly restimulation. […]
Spleen cells from injected animals were restimulated in vitro with irradiated syngeneic cells pulsed with the peptide used for in vivo priming. Immunogenicity was evaluated by assaying these cultured cells for cytotoxicity against T2-A2.1/K^b target cells pulsed with the priming peptide. […]

BT549 = assay: Cytotoxicity assay, lysis of human tumors by H3 and H7 specific CTL; assay type: cell-based; settings: Breast, A2 +
Procedure: (§1) […] target cells were incubated at 37° C. with […] of sodium ^51Cr chromate for 90 minutes in the presence or absence of specific peptide. Cells were washed three times and resuspended in 5% RPMI. For the assay, […] ^51Cr-labeled target cells were incubated with different concentrations of effector cells in a final volume of […] in U-bottomed 96-well plates. Supernatants were removed after 4-7 hrs at 37° C., and the percent specific lysis was determined by the following formula: [formula]
(§2) Tumor cells were preincubated for 24 hours prior to the assay in media supplemented with γ-interferon (γ-IFN, 20 ng/ml) plus tumor necrosis factor-α (TNF-α, 3 ng/ml). It is known that such pretreatment of tumor cells increases the expression of MHC I and adhesion molecules such as ICAM I on the surface of the cell thus enhancing their sensitivity to lysis by CTL. (See, e.g., Fisk, et al., Lympho. & Cytokine Res. 13: 125-131 (1994); Fady, et al., Cancer Immunol. Immunother. 37: 329-336 (1993).)

CASKI = assay: as above; assay type: cell-based; settings: Cervix, A2 +, Her-2 +
Procedure: as §1, §2

Hep-G2 = assay: as above; assay type: cell-based; settings: Hepatoma, A2 +
Procedure: as §1, §2

LG-2 = assay: as above; assay type: cell-based; settings: EBV-trans., A2 +, Her-2 −
Procedure: as §1, §2

MCF-7 = assay: as above; assay type: cell-based; settings: Breast, A2 +
Procedure: as §1, §2

MDA.M8231 = assay: as above; assay type: cell-based; settings: Breast, A2 +
Procedure: as §1, §2

NCI.H1355 = assay: as above; assay type: cell-based; settings: Lung, A2 +
Procedure: as §1, §2

OVCAR-5 = assay: as above; assay type: cell-based; settings: Ovarian, A2 +, Her-2 +
Procedure: as §1, §2

SAOS.175 = assay: as above; assay type: cell-based; settings: Osteosarcoma, A2 +, Her-2 +
Procedure: as §1, §2

SKMEL-5 = assay: as above; assay type: cell-based; settings: Melanoma, A2 +, Her-2 +
Procedure: as §1, §2

ST486 = assay: as above; assay type: cell-based; settings: Lymphoma, A2 +, Her-2 −
Procedure: as §1, §2

SV80 = assay: as above; assay type: cell-based; settings: Fibroblast, A2 +, Her-2 −
Procedure: as §1, §2

SW480 = assay: as above; assay type: cell-based; settings: Colon, A2 +
Procedure: as §1, §2

T98G = assay: as above; assay type: cell-based; settings: Glioblastoma, A2 +, Her-2 +
Procedure: as §1, §2

U2-OS = assay: as above; assay type: cell-based; settings: Osteosarcoma, A2 +, Her-2 +
Procedure: as §1, §2

U87G = assay: as above; assay type: cell-based; settings: Glioblastoma, A2 +
Procedure: as §1, §2

JY = assay: as above; assay type: cell-based; parameters: scale not given here; settings: Lymphoma, A2 +, Her-2 −
Procedure: as §1, §2

MALME-3M = assay: as above; assay type: cell-based; parameters: scale not given here; settings: Melanoma, A2 +, Her-2 +
Procedure: as §1, §2

MDA.MB435 = assay: as above; assay type: cell-based; parameters: scale not given here; settings: Breast, A2 −, Her-2 +
Procedure: as §1, §2

[2] = + CYT (γ-IFN 20 ng/ml plus TNF-α 3 ng/ml, 24 hours)

VMAGVGSPYV [Peptide H7]
ability to stimulate a CTL response in Tg mice, in words [1]: able to stimulate a CTL response
Killing of Tumors Expressing Her-2/neu (BT549; [2]): 36
Killing of Tumors Expressing Her-2/neu (BT549; without cytokines): 2
Killing of Tumors Expressing Her-2/neu (CASKI; [2]): 20
Killing of Tumors Expressing Her-2/neu (CASKI; without cytokines): 9
Killing of Tumors Expressing Her-2/neu (Hep-G2; [2]): 29
Killing of Tumors Expressing Her-2/neu (Hep-G2; without cytokines): 4
Killing of Tumors Expressing Her-2/neu (LG-2; [2]): 3
Killing of Tumors Expressing Her-2/neu (LG-2; without cytokines): 1
Killing of Tumors Expressing Her-2/neu (MCF-7; [2]): 40
Killing of Tumors Expressing Her-2/neu (MCF-7; without cytokines): 7
Killing of Tumors Expressing Her-2/neu (MDA.M8231; [2]): 89
Killing of Tumors Expressing Her-2/neu (MDA.M8231; without cytokines): 26
Killing of Tumors Expressing Her-2/neu (NCI.H1355; [2]): 62
Killing of Tumors Expressing Her-2/neu (NCI.H1355; without cytokines): 13
Killing of Tumors Expressing Her-2/neu (OVCAR-5; [2]): 23
Killing of Tumors Expressing Her-2/neu (OVCAR-5; without cytokines): 13
Killing of Tumors Expressing Her-2/neu (SAOS.175; [2]): 35
Killing of Tumors Expressing Her-2/neu (SAOS.175; without cytokines): 27
Killing of Tumors Expressing Her-2/neu (SKMEL-5; [2]): 40
Killing of Tumors Expressing Her-2/neu (SKMEL-5; without cytokines): 16
Killing of Tumors Expressing Her-2/neu (ST486; [2]): 8
Killing of Tumors Expressing Her-2/neu (ST486; without cytokines): 5
Killing of Tumors Expressing Her-2/neu (SV80; [2]): 2
Killing of Tumors Expressing Her-2/neu (SV80; without cytokines): 2
Killing of Tumors Expressing Her-2/neu (SW480; [2]): 17
Killing of Tumors Expressing Her-2/neu (SW480; without cytokines): 2
Killing of Tumors Expressing Her-2/neu (T98G; [2]): 93
Killing of Tumors Expressing Her-2/neu (T98G; without cytokines): 29
Killing of Tumors Expressing Her-2/neu (U2-OS; [2]): 62
Killing of Tumors Expressing Her-2/neu (U2-OS; without cytokines): 30
Killing of Tumors Expressing Her-2/neu (U87G; [2]): 1
Killing of Tumors Expressing Her-2/neu (U87G; without cytokines): 1
Killing of Tumors Expressing Her-2/neu (JY; [2]): 2
Killing of Tumors Expressing Her-2/neu (JY; without cytokines): 4
Killing of Tumors Expressing Her-2/neu (MALME-3M; [2]): 14
Killing of Tumors Expressing Her-2/neu (MALME-3M; without cytokines): 4
Killing of Tumors Expressing Her-2/neu (MDA.MB435; [2]): 1
Killing of Tumors Expressing Her-2/neu (MDA.MB435; without cytokines): 1
